Data set [1] in a line: Total radioactivity PK in plasma. The data set is classed as in vivo, human. As to the method:
Venous blood samples (18 mL/time point) were collected by either direct venipuncture or from an indwelling cannula inserted into a vein of the forearm into tubes containing potassium ethylene diamine tetra acetic acid (K2‐EDTA) at the following times for metabolite characterization, total radioactivity and parent drug analysis: Pre‐dose, 0.5, 1, 1.5, 2, 3, 4, 6, 8, 12, 24, 48, 72, 96, 120 and 144 h post‐dose. Urine samples were collected into pre‐weighed, uniquely labeled containers pre‐dose (before drug administration) and at the following intervals: 0–4, 4–8, 8–24, 24–48, 48–72, 72–96, 96–120 and 120–144 h post‐dose. Feces samples were collected quantitatively into uniquely labeled, polypropylene containers pre‐dose (before drug administration) and individually until 144 h post‐dose. Urine and feces samples were frozen at −20°C and blood samples at −70°C.
Analysis of total radioactivity data in plasma, blood, feces, and urine was performed by Covance Laboratories Inc. All sample combustions were performed in a Model 307 Sample Oxidizer (Packard Instrument Company) and the resulting ^14CO2 was trapped in a mixture of Perma Fluor™ (Perkin Elmer) and Carbo Sorb® (Perkin Elmer). Oxidation efficiency was evaluated on each day of sample combustion by analyzing a commercial radiolabeled standard both directly in a scintillation cocktail and by oxidation. […] EcoLite™(+) scintillation cocktail was used for samples analyzed directly. All samples were analyzed for radioactivity in Model 2900TR or 2910TR liquid scintillation counters (Packard Instrument Company) for at least 5 min or 100 000 counts. Each sample was homogenized or mixed before radioanalysis (unless the entire sample was used for analysis). All samples were analyzed in duplicate or triplicate, as applicable, if sample size allowed. If results from sample replicates (calculated as ^14C disintegrations per minute (dpm)/g sample) differed by more than 10% from the mean value and sample aliquots had radioactivity greater than 200 dpm, the sample was re‐homogenized or remixed and reanalyzed (if the sample size permitted).
Blood samples were mixed and duplicate aliquots of each (approximately 0.4 g) were combusted and analyzed by liquid scintillation […]. Plasma and urine samples were separately mixed and duplicate weighed aliquots of each (approximately 0.4 g for plasma and 0.2 g for urine) were analyzed directly by LSC. Urine volumes provided by the Covance clinical research unit were entered as a weight assuming a specific gravity of 1 g/mL. Feces samples were analyzed individually (samples were not combined by interval) and the weight of each individual sample was recorded. A weighed amount of methanol:water (20:80, v:v; approximately 2 to 3 times the sample weight, such that the homogenate weight:sample weight ratio was approximately 3 to 4) was added and the sample was mixed and homogenized using a probe type homogenizer. Triplicate‐weighed aliquots (approximately 0.2 g) were combusted and analyzed by LSC. The empty treatment vial from each subject was analyzed by adding a weighed amount of methanol to each vial and analyzing duplicate weighed aliquots (approximately 0.5 g) of each extract by LSC. Residual radioactivity recovered from each treatment vial was subtracted from the dose administered to the appropriate subject.
The total radioactivity in blood and plasma was determined by LSC. Nominal sampling time points were used for deriving total radioactivity blood and plasma PK data. […]

On the set-up of data set [2]: method as in earlier work. To be noted: cited from earlier work.
Data set [3] is described as follows: Stability in simulated gastric and intestinal fluid. In kind it is in vitro ADME. To be noted: 37°C, relative to time = 0 h. As to the method:
Simulated gastric fluid (SGF) was generated by mixing 2.0 g of sodium chloride and 3.2 g of purified pepsin, which is derived from porcine stomach mucosa, with an activity of 800 to 2500 units per mg of protein, in 7.0 mL of hydrochloric acid and sufficient water to make 1000 mL. The final test solution has a pH of about 1.2. Simulated intestinal fluid (SIF) was generated by dissolving 6.8 g of monobasic potassium phosphate in 250 mL of water and adding 77 mL of 0.2 N sodium hydroxide and 500 mL of water. To this mixture, 10.0 g of pancreatin was added and the solution pH was adjusted with either 0.2 N sodium hydroxide or 0.2 N hydrochloric acid to a pH of 6.8 ± 0.1 and diluted with water to a final volume of 1000 mL. Encorafenib was dissolved in SGF (100 μM final encorafenib concentration) and incubated for 1 h or SIF (1 μM final encorafenib concentration) for 3 h. Dilutions are prepared in HPLC vials by combining 20 μL of the test compound in DMSO with 180 μL of the specified assay media. Separate dilutions are prepared for each time point per media. The media is mixed by repeated pipetting, vortexed and incubated at 37°C. At the specified time period and equal volume of cold ACN is added to the vial to precipitate the protein and quench any enzymatic activity. […] Stability is calculated as % remaining relative to the T = 0 peak area.

On the set-up of data set [4]: method as in data on file. To be noted: in vitro study; ref data on file; cited from earlier work.

Each structure is given as a SMILES string. Values joined by “and” are separate entries in the source; they are usually repeats but may differ in a detail not shown here. Identical values can stand only once.

Turning to `COC(=O)N[C@@H](C)CNc1nccc(-c2cn(C(C)C)nc2-c2cc(Cl)cc(NS(C)(=O)=O)c2F)n1` [encorafenib], in data set [1] (Mean (SD)), the “Cmax, total radioactivity” value is on record as 2170 (107) ngEq/mL; the “T1/2, total radioactivity” value was 5.1 h and 5.1 (1.30) h. In addition, in data set [1] (Median (Minimum–Maximum)), the “Cmax, total radioactivity” value is reported as 2190 (2020–2330) ngEq/mL; the “T1/2, total radioactivity” value was 4.5 (7.1–4.3) h; the “Tmax, total radioactivity” value is recorded as 1.3 h. In addition, the “Dose proportionality of systemic exposure” value in data set [2] (after a single dose, dose range 50 mg to 700 mg) is on record as “dose‐proportional”. In addition, the “Variability of apparent oral clearance, encorafenib labeling” value in data set [2] is 54%. Also, in data set [3] (3-h incubation, 1 μM, pH 6.8), the “Percentage remaining in SIF with pancreatin” value is on record as “approximately 97%”. Moreover, the “Percentage remaining in SGF with pepsin” value in data set [3] (1 h incubation, 100 μM, pH about 1.2) was “approximately 101%”. Besides, the “[blood]/[plasma] in vitro” value in data set [4] is 0.75 ± 0.21.

These data come from paper PMC10541456, “A phase I, single‐center, open‐label study to investigate the absorption, distribution, metabolism and excretion of encorafenib following a single oral dose of 100 mg [ ^14C] encorafenib in healthy male subjects” (Pharmacology Research & Perspectives, 2023).
